The source of these data is US20080318970A1, “Treatment of Infectious Diseases” (priority 2004, published 2008).

Values after ≈ are worked out from the molar mass of the structure shown.

For one data set, the system named is E. faecalis F86. Nature of the data set: Checkerboard combination study (FIC index). The format is cell-based, Enterococcus faecalis. As to conditions: anti-infective agent Dicloxacillin; isolate susceptible (S). As to the method: Enterococcus faecalis, F86. Susceptible clinical isolate. No development of resistance.
(§1) The synergistic effect was studied by checkerboard combination studies exposing cells to 0-64 μg/ml anti-infective agent in the absence or presence of trans-flupenthixol, cis-flupenthixol or trans-clopenthixol. Each experiment was repeated in tripleduplicate. MIC values represent the mean values of two separate experiments,
(§2) A log phase culture of bacteria was diluted with fresh pre-warmed medium and adjusted to a defined OD at 600 nm in order to give a final concentration of 1×10^4 bacteria/ml medium in each well. Each chemosensitising compound was added to the bacterial culture in the wells in two-fold dilutions in order to give final concentrations ranging from 0 to 8 μg/ml. Anti-infective agent was added to the bacterial culture in the wells in two-fold dilutions in order to give final concentrations ranging from 0 to 64 μg/ml Trays were incubated at 37° C. for 16 h. Wells were assessed visually for growth. The Fractional Inhibitory Concentration (FIC) was calculated for each anti-infective agent alone and in combination with trans-flupenthixol, cis-flupenthixol or trans-clopenthixol. The following formulae were used to calculate the FIC index:
(§3) FIC=FICchemosensitising compound+FICanti-infective agent
(§4) FICchemosensitising compound=(MICchemosensitising compound+anti-infective agent)/(MICchemosensitising compound)
(§5) FICanti-infective agent=(MICanti-infective agent+chemosensitising compound/(MICanti-Infective agent)
(§6) Synergy was defined as a FIC index of <0.5.

Data set [1] relates to Enterococcus faecalis BG-029. Nature of the data set: Mouse peritonitis model, bacterial counts in peritoneal fluid. The format is in vivo, NMRI mice. The note with it: neutropenic mice; subcutaneous; 6 h; ciprofloxacin 12.5 mg per mouse, trans-clopenthixol 5 mg per kg, alone or combined. As to the method: Female NMRI mice (age, approximately 6 to 8 weeks; weight, 30±2 g) were used for the mouse […] peritonitis model (as described below). Bacterial suspensions were prepared from fresh overnight cultures (made from frozen stock cultures) on 5% blood agar plates as described above. […] The size of the inoculum was determined by viability counting on 5% blood agar. Neutropenia was introduced by pretreating the mice with cyclophosphamide (6 mg daily for three days). […] Inoculated untreated control mice were included in all trials. […] After the mice were killed, peritoneal washes were performed by injecting 2 ml of sterile saline intraperitoneally, followed by massage of the abdomen and then opening of the peritoneum to collect the fluid.

For the next data set, the system named is HIV-1 strain HTLV-IIIB. The data set can be described thus: Inhibition of HIV-1 replication in MT4 cells (MTT assay). In kind it is cell-based. As to the method:
Each experiment was repeated in tripleduplicate. MIC values represent the mean values of two separate experiments.
The HIV-1 strain HTLV-IIIB were propagated in H9 cells at 37° C., 5% CO2 using RPMI 1640 with 10% heat-inactivated foetal calf serum (FCS) and antibiotics (growth medium). Culture supernatant was filtered ([…]), aliquotted, and stored at −80° C. until use. The HIV-1 strain was obtained from NIH AIDS Research and Reference Program.
(§7) Compounds were examined for possible antiviral activity against strain 111B of HIV-1 using MT4 cells as target cells. MT4 cells were incubated with virus (0.005 MOI) and growth medium containing the test dilutions of compound(s) for six days in parallel with virus-infected and uninfected control cultures without compound added. Expression of HIV in the cultures was indirectly quantified using the MTT assay as previously described. Compounds mediating less than 30% reduction of HIV expression were considered without biological activity. Compounds were tested in parallel for cytotoxic effect in uninfected MT4 cultures containing the test dilutions of compound as described above. Cultures for test of both antiviral activity and cytotoxic effect were set up in tripleduplicates, […] per culture in micro titre plates.
The 50% inhibitory concentration was determined by interpolation from the plots of percent inhibition versus concentration of compound.
EC50 is defined as the effective concentration that inhibits 50% of viral production, 50% of viral infectivity, or 50% of the virus-induced cytopathic effect.

In data set [2] the test system is Enterococcus faecalis BG-029. The data set can be described thus: MIC by microdilution test (NCCLS). In kind it is cell-based. The note with it: clinical isolate from human urine, resistant to ciprofloxacin. How it is done:
A clinical isolate of Enterococcus faecalis BG-029 from human urine was used.
The MICs were determined by the microdilution test according to the NCCLS Guidelines.

The next data set deals with uninfected MT4 cells. The data set can be described thus: Cytotoxic effect in uninfected MT4 cultures. The format is cell-based. How it is done:
as §7
CC50 is defined as the inhibitory concentration that reduces cellular growth or viability of uninfected cells by 50%.

The test system of the next data set is P. aeruginosa 432b. The data set can be described thus: Checkerboard combination study (FIC index). The format is cell-based. The note with it: isolate resistant (R). As to the method: P. aeruginosa 432b. Clinical multidrug resistant isolate. Resistant to tetracycline, beta-lactams, fluoroquinolones, and aminoglycosides. Beta-lactamase producing, changes in Penicillin Binding Proteins and changes in Outer Membrane Proteins.
as §1, §2, §3, §4, §5, §6

The next data set deals with E. faecalis F84. Nature of the data set: Checkerboard combination study (FIC index). The note with it: MDR isolate. The format is cell-based, Enterococcus faecalis. As to the method: Enterococcus faecalis, F84. A multidrug resistant clinical isolate.
as §1
as §2, with “Each chemosensitising compound was added to the bacterial culture in the wells in two-fold dilutions in order to give final concentrations ranging from 0 to 8 μg/ml.” left out
as §3, §4, §5, §6

The test system of a further data set is E. coli 331ME. The data set can be described thus: Checkerboard combination study (FIC index). The format is cell-based. As to conditions: MDR isolate. As to the method:
E. coli 331 ME. In vivo-selected multidrug resistant clinical isolates of E. coli. Strains were isolated from a patient with severe cystitis/urosepsis. Resistant to tetracycline, beta-lactams, fluoroquinolones, chloramphenicol and aminoglycosides.
as §1, §2, §3, §4, §5, §6

For the next data set, the system named is S. aureus E45. The data set can be described thus: Checkerboard combination study (FIC index). In kind it is cell-based, Staphylococcus aureus. As to conditions: isolate resistant (R). As to the method: Staphylococcus aureus E45 MRSA. Clinical isolate. Resistant to methicillin. Susceptible to teicoplanin chloramphenicol, fosfomycin, netilmicin and vancomycin.
as §1, §2, §3, §4, §5, §6

Where [3] appears, read: alone, at the concentrations used.
Where [4] appears, read: anti-infective agent Ciprofloxacin.
Setting [5] is: anti-infective agent Gentamicin.
Where [6] appears, read: anti-infective agent Piperacillin.
The mark [7] stands for this setting: anti-infective agent Dicloxacillin.

Turning to `OCCN1CCN(CC/C=C2\c3ccccc3Sc3ccc(Cl)cc32)CC1` [trans-clopenthixol], the FIC index with E. faecalis F86 is listed as 0.25; in the data set on P. aeruginosa 432b (setting [4]) it was 0.008; in the data set with P. aeruginosa 432b (setting [5]), 0.032; in the data set on P. aeruginosa 432b (setting [6]), 0.063; in the data set with E. faecalis F84 (setting [7]) it was 0.03; with E. faecalis F84 (anti-infective agent Vanomycin) it was 0.06. Besides, the FIC index in the data set on E. coli 331ME (setting [4]) is reported as 0.003; in the data set with E. coli 331ME (setting [5]), 0.008; with E. coli 331ME (setting [6]), 0.063; in the data set on S. aureus E45 (setting [7]) it was 0.06; with S. aureus E45 (anti-infective agent Fucidic acid) it was 0.06. For the same compound, in data set [1], the “bactericidal activity in mouse peritoneum (in words)” value is “did not affect the bacteria”. In addition, the “antiviral effect (in words)” value in the data set with HIV-1 strain HTLV-IIIB (setting [3]) is listed as “no antiviral or cytotoxic effect”. Besides, in the data set with HIV-1 strain HTLV-IIIB (compound alone, MT4 cells, six days), the EC50 was > 3 µM. The MIC in [2] worked out at 6 µg/mL (≈ 15 µM). Further, the “cytotoxic effect (in words)” value in the data set with uninfected MT4 cells (setting [3]) was “no antiviral or cytotoxic effect”. Besides, the half-maximal cytotoxic concentration (CC50) in the data set with uninfected MT4 cells (compound alone, uninfected MT4) was > 3 µM.
